The text below walks through data of patent publication US20060069132A1, “Azolecarboxamide herbicides” (priority 2004, published 2006).

In one assay the test system is ducksalad. Put plainly: Test C flooded paddy test. It is filed as in vivo, Heteranthera limosa. As to conditions: for Plant response rating, Ducksalad: 500 g ai/ha, visual rating after 12 to 14 days.
Another assay deals with giant foxtail. Put plainly: Test A pre-/postemergence herbicide test. It is filed as in vivo, Setaria faberi. Put shortly: (§1)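 Visual injury rating on a 0–100 scale (0 no effect, 100 complete control) versus untreated controls, about ten days after treatment in greenhouse. Pre: directed soil spray onto seeded sandy loam. Post: spray to runoff on plants 2–10 cm tall at one- to two-leaf stage.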

For another assay, the system named is morningglory. Briefly: Test A pre-/postemergence herbicide test. Format: in vivo, Ipomoea spp. The method, boiled down:
as §1

Another assay relates to rice. Briefly: Test C flooded paddy test. Format: in vivo, Oryza sativa. As to conditions: for Plant response rating, Rice: 500 g ai/ha, visual rating after 12 to 14 days. The method, boiled down:
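Injury scored visually against controls on a 0 (no effect) to 100 (complete control) scale, 12 to 14 days after treatment in greenhouse. Flooded paddy plants treated at 2-leaf stage; postemergence plants at 1- to 4-leaf stage, 2 to 18 cm tall.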

A further assay has as its system velvetleaf. Briefly: Test A pre-/postemergence herbicide test. Format: in vivo, Abutilon theophrasti. Put shortly: as §1
The mark [1] stands for this setting: 125 g ai/ha, scale 0 to 100 (0 no effect, 100 complete control).
The mark [2] stands for this setting: 250 g ai/ha, scale of 0 to 100, 0 is no effect, 100 is complete control.
Setting [3] is: scale 0 to 100 (0 no effect, 100 complete control).
The mark [4] stands for this setting: Postemergence, 500 g ai/ha, 0 to 100 scale, 0 no effect, 100 complete control.
[5] abbreviates: Postemergence, 2000 g ai/ha, 0 to 100 scale, 0 no effect, 100 complete control.
Setting [6] is: Preemergence, 2000 g ai/ha, visual rating, 0 to 100 scale (0 no effect, 100 complete control).
Setting [7] is: preemergence, 500 g ai/ha, visual injury, 0 to 100 scale (0 no effect, 100 complete control).
Where [8] appears, read: 62 g ai/ha, scale 0 to 100 (0 no effect, 100 complete control).
The mark [9] stands for this setting: Preemergence, 500 g ai/ha, visual rating, 0 to 100 scale (0 no effect, 100 complete control).
The mark [10] stands for this setting: 125 g ai/ha, scale of 0 to 100, 0 is no effect, 100 is complete control.

For `C#CCNC(=O)c1cc(NC(=O)c2cc(C(C)(C)C)nn2CC)ccn1` [Compound 283], the “Ducksalad plant response rating” value with ducksalad (62 g ai/ha, scale 0 to 100) came out at 0; in the assay with ducksalad (setting [1]), 0; with ducksalad (setting [2]) it was 0. Moreover, the “Plant response rating, Ducksalad” value in the assay with ducksalad (setting [3]) came out at 0. The entries for the “Foxtail, Giant plant response rating” value in the assay on giant foxtail (setting [4]), with giant foxtail (setting [6]) and with giant foxtail (setting [7]) were 10, 50 and 10, respectively. Besides, the “Plant response rating, Foxtail, Giant” value with giant foxtail (setting [5]) was 25. The “Morningglory plant response rating” value with morningglory (setting [4]) amounted to 0; in the assay on morningglory (setting [6]), 10; in the assay on morningglory (setting [7]) it was 0. Besides, the “Plant response rating, Morningglory” value with morningglory (setting [5]) is 0. Besides, the “Rice plant response rating” value with rice (62 g ai/ha, scale 0 to 100) is listed as 0; in the assay on rice (setting [1]), 0; in the assay with rice (setting [2]) it was 0. Besides, the “Plant response rating, Rice” value in the assay with rice (setting [3]) is recorded as 0. The “Velvetleaf plant response rating” value is reported as 15 in the assay with velvetleaf (setting [4]), 15 in the assay with velvetleaf (setting [6]) and 0 in the assay with velvetleaf (setting [7]). For the same compound, the “Plant response rating, Velvetleaf” value in the assay on velvetleaf (setting [5]) is listed as 35.
As to `C#CCNC(=O)c1cccc(NC(=O)c2sc(C(C)(C)C)nc2CC)c1` [Compound 319], the “Ducksalad plant response rating” value in the assay on ducksalad (62 g ai/ha, scale 0 to 100) worked out at 0; in the assay on ducksalad (setting [1]), 0; with ducksalad (setting [2]), 45. In addition, the “Plant response rating, Ducksalad” value in the assay on ducksalad (setting [3]) is recorded as 85. The “Foxtail, Giant plant response rating” value with giant foxtail (setting [4]) is 0; in the assay with giant foxtail (setting [6]), 80; in the assay with giant foxtail (setting [7]), 55. Also, in the assay with giant foxtail (setting [5]), the “Plant response rating, Foxtail, Giant” value was 40. Besides, the results for the “Morningglory plant response rating” value in the assay with morningglory (setting [4]), with morningglory (setting [6]) and in the assay with morningglory (setting [7]) were 15, 60 and 20, respectively. In addition, in the assay on morningglory (setting [5]), the “Plant response rating, Morningglory” value is 25. Also, the “Rice plant response rating” value in the assay on rice (62 g ai/ha, scale 0 to 100) was found to be 0; in the assay with rice (setting [1]) it was 35; with rice (setting [2]), 35. Besides, the “Plant response rating, Rice” value with rice (setting [3]) was 70. In addition, the entries for the “Velvetleaf plant response rating” value with velvetleaf (setting [4]), in the assay with velvetleaf (setting [6]) and with velvetleaf (setting [7]) were 20, 45 and 35, respectively. Further, the “Plant response rating, Velvetleaf” value in the assay on velvetleaf (setting [5]) is reported as 30.
As to `CCOc1cccc(NC(=O)c2cc(C(C)(C)C)nn2CC)c1` [Compound 136], the “Ducksalad plant response rating” value is 0 with ducksalad (setting [8]), 0 in the assay with ducksalad (setting [1]) and 45 in the assay with ducksalad (setting [2]). Besides, the “Plant response rating, Ducksalad” value in the assay on ducksalad (setting [3]) worked out at 90. Also, the “Foxtail, Giant plant response rating” value in the assay on giant foxtail (setting [4]) was 25; with giant foxtail (setting [9]), 60; in the assay with giant foxtail (setting [6]), 70. In addition, in the assay on giant foxtail (setting [5]), the “Plant response rating, Foxtail, Giant” value came to 50. Besides, the “Morningglory plant response rating” value with morningglory (setting [4]) worked out at 20; with morningglory (setting [9]), 20; with morningglory (setting [6]) it was 45. In addition, the “Plant response rating, Morningglory” value in the assay on morningglory (setting [5]) was 40. In addition, the “Rice plant response rating” value is 30 in the assay with rice (setting [8]), 35 with rice (setting [1]) and 50 with rice (setting [2]). For the same compound, in the assay with rice (setting [3]), the “Plant response rating, Rice” value was found to be 70. Besides, the “Velvetleaf plant response rating” value in the assay with velvetleaf (setting [4]) was determined as 55; in the assay with velvetleaf (setting [6]), 30; in the assay on velvetleaf (setting [7]), 25. In addition, the “Plant response rating, Velvetleaf” value in the assay on velvetleaf (setting [5]) was found to be 75.
For `CCN(C(C)=O)C(=O)c1ccc(F)c(NC(=O)c2cc(C(C)(C)C)nn2CC)c1` [Compound 413], the “Ducksalad plant response rating” value was 15 with ducksalad (62 g ai/ha, scale 0 to 100); 45 in the assay on ducksalad (setting [1]); 70 in the assay with ducksalad (setting [2]). Besides, the “Plant response rating, Ducksalad” value in the assay on ducksalad (setting [3]) was found to be 70. In addition, the “Foxtail, Giant plant response rating” value in the assay on giant foxtail (setting [4]) amounted to 10; in the assay on giant foxtail (setting [6]) it was 90; in the assay on giant foxtail (setting [7]), 65. The “Plant response rating, Foxtail, Giant” value with giant foxtail (setting [5]) was 35. Also, the entries for the “Morningglory plant response rating” value in the assay on morningglory (setting [4]), in the assay with morningglory (setting [6]) and in the assay on morningglory (setting [7]) were 10, 15 and 5, respectively. Besides, the “Plant response rating, Morningglory” value with morningglory (setting [5]) is 20. Besides, the “Rice plant response rating” value worked out at 35 in the assay on rice (62 g ai/ha, scale 0 to 100); 45 in the assay with rice (setting [1]); 55 in the assay on rice (setting [2]). In addition, the “Plant response rating, Rice” value with rice (setting [3]) was determined as 70. Also, the “Velvetleaf plant response rating” value is given as 40 with velvetleaf (setting [4]), 35 with velvetleaf (setting [6]) and 35 with velvetleaf (setting [7]). In addition, the “Plant response rating, Velvetleaf” value with velvetleaf (setting [5]) amounted to 55.
With `CCn1nc(C(C)(C)C)cc1C(=O)Nc1cccc(C(C)=O)c1` [Compound 122], the figures for the “Ducksalad plant response rating” value in the assay with ducksalad (setting [8]), in the assay with ducksalad (setting [10]) and in the assay on ducksalad (setting [2]) were 50, 80 and 80, respectively. The “Plant response rating, Ducksalad” value in the assay with ducksalad (setting [3]) stood at 80. Also, the “Foxtail, Giant plant response rating” value with giant foxtail (setting [4]) is given as 80; with giant foxtail (setting [9]), 65; in the assay on giant foxtail (setting [6]) it was 85. Also, in the assay on giant foxtail (setting [5]), the “Plant response rating, Foxtail, Giant” value amounted to 80. For the same compound, the “Morningglory plant response rating” value is 30 in the assay with morningglory (setting [4]), 25 with morningglory (setting [9]) and 30 in the assay on morningglory (setting [6]). Further, in the assay on morningglory (setting [5]), the “Plant response rating, Morningglory” value was 65. Also, the “Rice plant response rating” value turned out to be 0 in the assay on rice (setting [8]), 10 in the assay on rice (setting [10]) and 10 in the assay on rice (setting [2]). Also, the “Plant response rating, Rice” value in the assay with rice (setting [3]) is on record as 50. The “Velvetleaf plant response rating” value with velvetleaf (setting [4]) is listed as 45; in the assay on velvetleaf (setting [6]), 70; in the assay on velvetleaf (setting [7]), 40. The “Plant response rating, Velvetleaf” value with velvetleaf (setting [5]) is recorded as 70.
For `CCNC(=O)c1ccc(F)c(NC(=O)c2cc(C(C)(C)C)nn2CC)n1` [Compound 278], the “Ducksalad plant response rating” value in the assay on ducksalad (62 g ai/ha, scale 0 to 100) came to 0; in the assay with ducksalad (setting [1]), 0; with ducksalad (setting [2]), 0. Also, the “Plant response rating, Ducksalad” value in the assay on ducksalad (setting [3]) is on record as 20. For the same compound, the figures for the “Foxtail, Giant plant response rating” value in the assay on giant foxtail (setting [4]), in the assay on giant foxtail (setting [6]) and with giant foxtail (setting [7]) were 5, 85 and 60, respectively. In the assay with giant foxtail (setting [5]), the “Plant response rating, Foxtail, Giant” value is listed as 15. In addition, the figures for the “Morningglory plant response rating” value with morningglory (setting [4]), in the assay on morningglory (setting [6]) and with morningglory (setting [7]) were 10, 25 and 10, respectively. In the assay on morningglory (setting [5]), the “Plant response rating, Morningglory” value is given as 5. Moreover, the “Rice plant response rating” value in the assay with rice (62 g ai/ha, scale 0 to 100) was 0; in the assay on rice (setting [1]), 0; in the assay on rice (setting [2]) it was 15. In addition, the “Plant response rating, Rice” value in the assay with rice (setting [3]) amounted to 30. Besides, the figures for the “Velvetleaf plant response rating” value with velvetleaf (setting [4]), in the assay on velvetleaf (setting [6]) and with velvetleaf (setting [7]) were 20, 35 and 20, respectively. Besides, the “Plant response rating, Velvetleaf” value with velvetleaf (setting [5]) amounted to 25.
Regarding `CCc1nc(C(C)(C)C)sc1C(=O)Nc1cccc(C(=O)NC(C)(C)C)n1` [Compound 216], the results for the “Ducksalad plant response rating” value in the assay on ducksalad (setting [8]), with ducksalad (setting [1]) and with ducksalad (setting [2]) were 0, 20 and 30, respectively. The “Plant response rating, Ducksalad” value in the assay with ducksalad (setting [3]) was determined as 40. In addition, the “Foxtail, Giant plant response rating” value in the assay on giant foxtail (setting [4]) amounted to 20; with giant foxtail (setting [6]), 70; in the assay on giant foxtail (setting [7]) it was 25. Further, in the assay on giant foxtail (setting [5]), the “Plant response rating, Foxtail, Giant” value worked out at 20. For the same compound, the “Morningglory plant response rating” value with morningglory (setting [4]) came to 20; in the assay on morningglory (setting [6]), 15; with morningglory (setting [7]) it was 0. Also, in the assay on morningglory (setting [5]), the “Plant response rating, Morningglory” value is 20. Further, the “Rice plant response rating” value with rice (setting [8]), with rice (setting [1]) and in the assay on rice (setting [2]) was 0 in each case. Also, in the assay on rice (setting [3]), the “Plant response rating, Rice” value is listed as 30. For the same compound, the “Velvetleaf plant response rating” value amounted to 25 with velvetleaf (setting [4]), 30 in the assay on velvetleaf (setting [6]) and 10 with velvetleaf (setting [7]). In the assay on velvetleaf (setting [5]), the “Plant response rating, Velvetleaf” value is recorded as 35.
